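Exposure lasted 48 hours, with cells grown in 96-well plates and compounds tested at five concentrations. The concentration for 50% growth inhibition is given as GI50.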 Calls of active or inactive are those of the source. No stated cut-off is given here; in the data, active = GI50 up to about 1.1 µM and inactive = higher.
Legend:
Assay in all cases: inhibition of tumour cell growth, NCI panel, 48 h
[1] = test system: 786-0
[2] = test system: A549
[3] = test system: ACHN
[4] = test system: CAKI-1
[5] = test system: CCRF-CEM
[6] = test system: DLD-1
[7] = test system: DMS-273
[8] = test system: EKVX
[9] = test system: HCT-116
[10] = test system: HCT-15
[11] = test system: HL-60
[12] = test system: HOP-92
[13] = test system: HT-29
[14] = test system: IGROV-1
[15] = test system: K562
[16] = test system: KM-20L2
[17] = test system: KM12
[18] = test system: LOX IMVI
[19] = test system: LXFL 529
[20] = test system: M14
[21] = test system: M19-MEL
[22] = test system: MOLT-4
[23] = test system: Malme-3M
[24] = test system: NCI-H226
[25] = test system: NCI-H23
[26] = test system: NCI-H522
[27] = test system: OVCAR-3
[28] = test system: RPMI-8226
[29] = test system: SF-268
[30] = test system: SF-295
[31] = test system: SF-539
[32] = test system: SK-MEL-28
[33] = test system: SK-MEL-2
[34] = test system: SK-OV-3
[35] = test system: SN12C
[36] = test system: SNB-19
[37] = test system: SNB-75
[38] = test system: SNB-78
[39] = test system: SR
[40] = test system: SW-620
[41] = test system: TK-10
[42] = test system: U-251
[43] = test system: UACC-257
[44] = test system: UACC-62
[45] = test system: UO-31
[46] = test system: XF498
[47] = test system: A498
[48] = test system: COLO 205
[49] = test system: DMS-114
[50] = test system: HCC 2998
[51] = test system: HOP-62
[52] = test system: NCI-H460
[53] = test system: OVCAR-4
[54] = test system: OVCAR-5
[55] = test system: OVCAR-8
[56] = test system: RXF 393
[57] = test system: SK-MEL-5

In the case of `COCCNC(=O)C1C(=O)N(CCOC)C(=O)/C1=N/N` (stereo not drawn), the GI50 [1] is reported as > 100 µM (inactive), the GI50 [2] is reported as > 100 µM (inactive) and the GI50 [3] is reported as > 100 µM (inactive). For the same molecule, the GI50 [4] was > 100 µM (inactive), the GI50 [5] was > 100 µM (inactive) and the GI50 [6] was > 100 µM (inactive). For the same molecule, the GI50 [7] was > 100 µM (inactive), the GI50 [8] was > 100 µM (inactive) and the GI50 [9] was > 100 µM (inactive). The GI50 [10] was > 100 µM, the GI50 [11] was > 100 µM (inactive) and the GI50 [12] was > 100 µM (inactive). The GI50 [13] was > 100 µM (inactive), the GI50 [14] was > 100 µM (inactive) and the GI50 [15] was > 100 µM (inactive). For the same molecule, the GI50 [16] was > 100 µM (inactive), the GI50 [17] was > 100 µM (inactive) and the GI50 [18] was > 100 µM (inactive). The GI50 [19] was > 100 µM (inactive), the GI50 [20] was > 100 µM (inactive) and the GI50 [21] was > 100 µM (inactive). The GI50 [22] was > 100 µM (inactive), the GI50 [23] was > 100 µM (inactive) and the GI50 [24] was > 100 µM (inactive). The GI50 [25] was > 100 µM (inactive), the GI50 [26] was > 100 µM (inactive) and the GI50 [27] was > 100 µM (inactive). The GI50 [28] was > 100 µM (inactive), the GI50 [29] was > 100 µM (inactive) and the GI50 [30] was > 100 µM (inactive). The GI50 [31] was > 100 µM (inactive), the GI50 [32] was > 100 µM (inactive) and the GI50 [33] was > 100 µM (inactive). For the same molecule, the GI50 [34] was > 100 µM (inactive), the GI50 [35] was > 100 µM (inactive) and the GI50 [36] was > 100 µM (inactive). The GI50 [37] was > 100 µM (inactive), the GI50 [38] was > 100 µM (inactive) and the GI50 [39] was > 100 µM (inactive). The GI50 [40] was > 100 µM (inactive), the GI50 [41] was > 100 µM (inactive) and the GI50 [42] was > 100 µM (inactive). For the same molecule, the GI50 [43] was > 100 µM (inactive), the GI50 [44] was > 100 µM (inactive) and the GI50 [45] was > 100 µM (inactive). For the same molecule, the GI50 [46] was > 100 µM (inactive).

In the case of `CC1=NN(C(=O)c2ccc(Cl)cc2)C(=O)/C1=C/c1ccc(Cl)cc1`, the GI50 [1] is reported as > 100 µM (inactive), the GI50 [47] is reported as > 100 µM (inactive) and the GI50 [2] is reported as > 100 µM (inactive). The GI50 [3] was > 100 µM (inactive), the GI50 [4] was > 100 µM (inactive) and the GI50 [5] was > 100 µM (inactive). The GI50 [48] was > 100 µM (inactive), the GI50 [6] was > 100 µM (inactive) and the GI50 [49] was > 100 µM (inactive). For the same molecule, the GI50 [8] was > 100 µM (inactive), the GI50 [50] was > 100 µM (inactive) and the GI50 [9] was > 100 µM (inactive). The GI50 [11] was > 100 µM (inactive), the GI50 [51] was > 100 µM (inactive) and the GI50 [12] was > 100 µM (inactive). The GI50 [13] was > 100 µM (inactive), the GI50 [14] was > 100 µM (inactive) and the GI50 [15] was > 100 µM (inactive). The GI50 [16] was > 100 µM (inactive), the GI50 [17] was > 100 µM (inactive) and the GI50 [18] was > 100 µM (inactive). For the same molecule, the GI50 [19] was > 100 µM (inactive), the GI50 [20] was > 100 µM (inactive) and the GI50 [21] was > 100 µM (inactive). The GI50 [22] was > 100 µM (inactive), the GI50 [23] was > 100 µM (inactive) and the GI50 [25] was > 100 µM (inactive). For the same molecule, the GI50 [52] was > 100 µM (inactive), the GI50 [26] was > 100 µM (inactive) and the GI50 [27] was > 100 µM (inactive). For the same molecule, the GI50 [53] was > 100 µM (inactive), the GI50 [54] was > 100 µM (inactive) and the GI50 [55] was > 100 µM (inactive). For the same molecule, the GI50 [28] was > 100 µM (inactive), the GI50 [56] was > 100 µM (inactive) and the GI50 [29] was > 100 µM (inactive). The GI50 [30] was > 100 µM (inactive), the GI50 [31] was > 100 µM (inactive) and the GI50 [32] was > 100 µM (inactive). For the same molecule, the GI50 [33] was > 100 µM (inactive), the GI50 [57] was > 100 µM (inactive) and the GI50 [34] was > 100 µM (inactive). The GI50 [35] was > 100 µM (inactive), the GI50 [36] was > 100 µM (inactive) and the GI50 [38] was 40.8 µM (inactive). For the same molecule, the GI50 [40] was > 100 µM (inactive), the GI50 [41] was > 100 µM (inactive) and the GI50 [42] was > 100 µM (inactive). For the same molecule, the GI50 [43] was > 100 µM (inactive), the GI50 [44] was > 100 µM (inactive) and the GI50 [45] was > 100 µM (inactive). The GI50 [46] was > 100 µM (inactive).

— ChEMBL document CHEMBL1201862, “PubChem BioAssay data set” (2004)
